Laboratory results: patent EP3002006A1, “Pharmaceutical composition capable for the incorporation Febuxostat in the crystalline modifications F10, II, G and A” (Bluepharma - Industria Farmacêutica, S.A., priority 2014, dated 2016)
≈ marks a conversion by molar mass, not a printed value. Read-outs that look alike come from different tables or passages of the source.

Assays:
[1] = Solubility of crystalline modifications of Febuxostat in phosphate buffer; assay type: physicochemical
[2] = In-vitro dissolution of tablets, Ph. Eur. 2.9.3 / USP <711> Method 2 (Paddle Apparatus); assay type: physicochemical; settings: Figures 2 and 3; same excipient mixture as example 1
Method: The in-vitro dissolution of tablets according to examples 2 to 5 were analyzed according to Ph. […]

| SMILES | Solubility ([1]; n=3) | influence on dissolution profile of interchange of crystalline form F10 by another crystalline form [2] | Solubility ([1]; aqueous buffer, n=3, read-out: Solubility) [µg/mL] |
| --- | --- | --- | --- |
| Cc1nc(-c2ccc(OCC(C)C)c(C#N)c2)sc1C(=O)O [Form "A", 2-[3-cyano-4-(2-methylpropoxy)phenyl]-4-methylthiazole-5-carboxylic acid] | 0,10 mg/ml | does not influence the dissolution profile significantly |  |
| Cc1nc(-c2ccc(OCC(C)C)c(C#N)c2)sc1C(=O)O [Form "F10", 2-[3-cyano-4-(2-methylpropoxy)phenyl]-4-methylthiazole-5-carboxylic acid] |  |  | 260 (≈ 822 µM) |
| Cc1nc(-c2ccc(OCC(C)C)c(C#N)c2)sc1C(=O)O [Form "G", 2-[3-cyano-4-(2-methylpropoxy)phenyl]-4-methylthiazole-5-carboxylic acid] | 0,13 mg/ml | does not influence the dissolution profile significantly |  |
| Cc1nc(-c2ccc(OCC(C)C)c(C#N)c2)sc1C(=O)O [Form "II", 2-[3-cyano-4-(2-methylpropoxy)phenyl]-4-methylthiazole-5-carboxylic acid] | 0,36 mg/ml | does not influence the dissolution profile significantly |  |
